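48-hour exposure; five concentrations; linearly interpolated endpoints. GI50: concentration for 50% inhibition of growth. TGI denotes the concentration required for complete inhibition of growth.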
What was measured:
Assay in all cases: NCI anticancer screen, dose series, 48 h
[1] = system: 786-0 renal
[2] = system: A498 renal
[3] = system: A549 NSCLC
[4] = system: ACHN renal
[5] = system: BT-549 breast
[6] = system: CAKI-1 renal
[7] = system: CCRF-CEM leukemia
[8] = system: COLO 205 colon
[9] = system: DU-145 prostate
[10] = system: EKVX NSCLC
[11] = system: HCC-2998 colon
[12] = system: HCT-116 colon
[13] = system: HCT-15 colon
[14] = system: HL-60(TB) leukemia
[15] = system: HOP-62 NSCLC
[16] = system: HOP-92 NSCLC
[17] = system: HS 578T breast
[18] = system: HT29 colon
[19] = system: IGROV1 ovarian
[20] = system: K-562 leukemia
[21] = system: KM12 colon
[22] = system: LOX IMVI melanoma
[23] = system: M14 melanoma
[24] = system: MALME-3M melanoma
[25] = system: MCF7 breast
[26] = system: MDA-MB-231 breast
[27] = system: MDA-MB-435
[28] = system: MDA-MB-468 breast
[29] = system: MOLT-4 leukemia
[30] = system: NCI-H226 lung
[31] = system: NCI-H23 lung
[32] = system: NCI-H460 lung
[33] = system: NCI-H522 lung
[34] = system: NCI/ADR-RES ovarian
[35] = system: OVCAR-3 ovarian
[36] = system: OVCAR-4 ovarian
[37] = system: OVCAR-5 ovarian
[38] = system: OVCAR-8 ovarian
[39] = system: PC-3 prostate
[40] = system: RPMI-8226 leukemia
[41] = system: RXF 393 renal
[42] = system: SF-268 CNS
[43] = system: SF-295 CNS
[44] = system: SF-539 CNS
[45] = system: SK-MEL-2 melanoma
[46] = system: SK-MEL-28 melanoma
[47] = system: SK-MEL-5 melanoma
[48] = system: SK-OV-3 ovarian
[49] = system: SN12C renal
[50] = system: SNB-19 CNS
[51] = system: SNB-75 CNS
[52] = system: SR leukemia
[53] = system: SW-620 colon
[54] = system: T-47D breast
[55] = system: TK-10 renal
[56] = system: U251 CNS
[57] = system: UACC-257 melanoma
[58] = system: UACC-62 melanoma
[59] = system: UO-31 renal

SMILES: CC(C)(C)c1cc(/C=C2\S/C(=N/c3ncn[nH]3)NC2=O)cc(C(C)(C)C)c1O
- GI50 [1]: 2.95 µM
- TGI [1]: 13.3 µM
- GI50 [2]: 1.77 µM
- TGI [2]: 10.5 µM
- GI50 [3]: 1.12 µM
- TGI [3]: 13.8 µM
- GI50 [4]: 0.691 µM
- TGI [4]: 12.6 µM
- GI50 [5]: 2.31 µM
- TGI [5]: 11.8 µM
- GI50 [6]: 1.37 µM
- TGI [6]: 16.7 µM
- GI50 [7]: 0.706 µM
- TGI [7]: 6.5 µM
- GI50 [8]: 1.99 µM
- TGI [8]: 12.8 µM
- GI50 [9]: 2.53 µM
- TGI [9]: 21.5 µM
- GI50 [10]: 2.15 µM
- TGI [10]: 12.1 µM
- GI50 [11]: 3.23 µM
- TGI [11]: 16.9 µM
- GI50 [12]: 0.978 µM
- TGI [12]: 11.1 µM
- GI50 [13]: 0.455 µM
- TGI [13]: 12.8 µM
- GI50 [14]: 2.73 µM
- TGI [14]: 18 µM
- GI50 [15]: 0.999 µM
- TGI [15]: 18.7 µM
- GI50 [16]: 1.72 µM
- TGI [16]: 13.4 µM
- GI50 [17]: 2.37 µM
- TGI [17]: 8.47 µM
- GI50 [18]: 3.03 µM
- TGI [18]: 19.4 µM
- GI50 [19]: 2.04 µM
- TGI [19]: 14.7 µM
- GI50 [20]: 1.44 µM
- TGI [20]: 54.3 µM
- GI50 [21]: 3.79 µM
- TGI [21]: 17 µM
- GI50 [22]: 0.71 µM
- TGI [22]: 12.7 µM
- GI50 [23]: 1.98 µM
- TGI [23]: 16.3 µM
- GI50 [24]: 3.74 µM
- TGI [24]: 18.9 µM
- GI50 [25]: 1.83 µM
- TGI [25]: 13 µM
- GI50 [26]: 2.91 µM
- TGI [26]: 14.8 µM
- GI50 [27]: 2.77 µM
- TGI [27]: 14.9 µM
- GI50 [28]: 2.75 µM
- TGI [28]: 15.5 µM
- GI50 [29]: 1.16 µM
- TGI [29]: 13.7 µM
- GI50 [30]: 1.8 µM
- TGI [30]: 14.3 µM
- GI50 [31]: 2.45 µM
- TGI [31]: 17.3 µM
- GI50 [32]: 0.402 µM
- TGI [32]: 10.1 µM
- GI50 [33]: 3.78 µM
- TGI [33]: 17.9 µM
- GI50 [34]: 0.472 µM
- TGI [34]: 14.4 µM
- GI50 [35]: 2.4 µM
- TGI [35]: 15.2 µM
- GI50 [36]: 2.31 µM
- TGI [36]: 16.3 µM
- GI50 [37]: 4.52 µM
- TGI [37]: 17.7 µM
- GI50 [38]: 1.76 µM
- TGI [38]: 14.3 µM
- GI50 [39]: 0.762 µM
- TGI [39]: 22.1 µM
- GI50 [40]: 2.6 µM
- TGI [40]: 33.8 µM
- GI50 [41]: 2.03 µM
- TGI [41]: 8.35 µM
- GI50 [42]: 2.61 µM
- TGI [42]: 16.6 µM
- GI50 [43]: 0.593 µM
- TGI [43]: 12.7 µM
- GI50 [44]: 2.89 µM
- TGI [44]: 12.6 µM
- GI50 [45]: 2.63 µM
- TGI [45]: 15.9 µM
- GI50 [46]: 2.93 µM
- TGI [46]: 14.4 µM
- GI50 [47]: 1.36 µM
- TGI [47]: 9.78 µM
- GI50 [48]: 4.83 µM
- TGI [48]: 20.5 µM
- GI50 [49]: 2.08 µM
- TGI [49]: 13.3 µM
- GI50 [50]: 1.5 µM
- TGI [50]: 12.9 µM
- GI50 [51]: 2.34 µM
- TGI [51]: 13.6 µM
- GI50 [52]: 0.935 µM
- TGI [52]: 29.8 µM
- GI50 [53]: 2.13 µM
- TGI [53]: 13.7 µM
- GI50 [54]: 2.29 µM
- TGI [54]: 44.4 µM
- GI50 [55]: 4.82 µM
- TGI [55]: 20.2 µM
- GI50 [56]: 0.801 µM
- TGI [56]: 7.9 µM
- GI50 [57]: 3.85 µM
- TGI [57]: 16.7 µM
- GI50 [58]: 2.28 µM
- TGI [58]: 11.8 µM
- GI50 [59]: 0.882 µM
- TGI [59]: 12.3 µM

From PubChem BioAssay (NCI)
